Assay results published in US5504085A, “Triazolo quinoxalines and their preparation and use” (Novo Nordisk A/S, priority 1991, dated 1996).
In brackets after ≈: the same amount, converted by molar mass.

Tests used:
[1] = molecular target: AMPA receptors (rat cerebral cortical membrane homogenate); assay: 3H-AMPA binding (Test 1): displacement of 3H-AMPA from AMPA type receptors; conditions: 5 nM 3H-AMPA, 0° C., 30 min, pH 7.1
Experimental: The affinity of a substance for one or more of the different types of excitatory amino acid receptors may be studied in simple binding experiments. In essense, the method involves incubation of a particular selected radiolabelled ligand and the particular specific substance to be investigated with brain homogenate which contains the receptor. Measurement of receptor occupancy is made by determination of the radioactivity bound to the homogenate and subtraction of nonspecific binding.
AMPA receptor binding may be studied by using ^3 H-AMPA as radioligand.
The pharmacological properties of the compounds of the present invention can be illustrated by determining their capability for displacing radioactively labelled 2-amino-3-hydroxy-5-methyl-4-isoxazolepropionic acid (AMPA) from the AMPA type receptors. […]
500 μl of thawed rat cerebral cortical membrane homogenate in Tris-HCl (30 mM), CaCI2 (2.5 mM) and KSCN (100 mM) pH 7.1 were incubated at 0° C. for 30 min. with 25 μl ^3 H-AMPA (5 nM final concentration) and the test compound and buffer. Non specific binding was determined by incubation with L-glutamic acid ([…] final concentration). […] Bound radioactivity was measured by scintillation counting. IC50 was determined by Hill analysis of at least four concentrations of test compound.

[2] = system: quisqualic acid stimulated spreading depression in chicken retina; assay: Spreading depression (Test 2): inhibition of quisqualic acid stimulated spreading depression in chicken retina; format: cell-based; conditions: Gallus gallus, 0.25 h, quisqualate 1 μg/ml, 26° C., 15 min incubation with test compound, read-out: TEST 2 IC50 (50% maximal inhibition of quisqualic acid stimulated spreading depression)
Text: The influence of glutamic add analogues on secondary effects of glutamate receptor interactions may be studied in vitro by using the phenomenon of spreading depression in chicken retina. Such experiments will provide information as to the efficades (agonist/antagonist) of the test substances. This is in contrast to binding studies, which only provide information on the affinities of the compounds for the receptor.
The pharmacological properties of the compounds of the present invention can be illustrated by determining their capability for displacing radioactively labelled 2-amino-3-hydroxy-5-methyl-4-isoxazolepropionic acid (AMPA) from the AMPA type receptors.
The antagonism is measured by determining the IC50 value which represents the concentration which produces a ,50% maximal inhibition of quisqualic acid stimulated spreading depression in chicken retina.
Spreading depression (Test 2) […]
The eyes are initially incubated in normal P.S.S. for 15-30 min. and then transferred to P.S.S. containing quisqualate (1μ g/ml). […] The time taken for an S.D. to start in each eye is measured.
After a further 15 min. of incubation in normal P.S.S. the eyes are transferred to normal P.S.S. containing the test compound and incubated for 15 min. […] The time taken for an S.D. to start in each eye is again measured. […]

`N#Cc1ccc2c(c1)[nH]c(=O)c1n[nH]c(=O)n12` [Example 4, 7-Cyano 1,2,4!triazolo 4,3-a!quinoxaline-1,4(2H, 5H)-dione] was tested, and the “TEST 1 IC50 (displacement of 50% of the specific binding of 3H-AMPA)” value [1] was 0.09 µg/mL and the IC50 [2] was 0.47 µg/mL (≈ 2.07 µM).
For `O=c1[nH]c2cc(C(F)(F)F)ccc2n2c(=O)[nH]nc12` [Example 3, 7-Trifluoromethyl 1,2, 4!triazolo 4,3-a!quinoxaline-1,4(2H,5H)-dione], the “TEST 1 IC50 (displacement of 50% of the specific binding of 3H-AMPA)” value [1] was 1.3 µg/mL and the IC50 [2] was 1.3 µg/mL (≈ 4.81 µM).
